The assay concerns Multidrug-Resistant Mycobacterium Tuberculosis (MDR-TB). Nature of the assay: microbe, parasite or virus in culture. It counts as cell-based. Particulars: read-out: minimum inhibitory concentration (MIC).

For `O=C(/C=C(\O)c1cc(Cc2c(F)cc(F)cc2F)cn(Cc2ccccc2F)c1=O)C(=O)N1CCN(c2cccc3ccccc23)CC1`, the MIC was below 1 µg/mL.

These data come from patent US9650360B2, “Anti-mycobacterial drugs against tuberculosis” (priority 2012, dated 2017).
